Reference: ChEMBL document CHEMBL4251670, “Cyclopiamines C and D: Epoxide Spiroindolinone Alkaloids from Penicillium sp. CML 3020” (J Nat Prod, 2018)

Columns and labels:
[1] = Cytotoxicity against human NCH421K cells after 72 hrs by CellTiter-Glo luminescent assay; assay type: functional, cell-based
MDA-MB-231 = assay: Cytotoxicity against human MDA-MB-231 cells after 72 hrs by CellTiter-Glo luminescent assay; assay type: functional, cell-based; settings: MDA-MB-231, 72 h
Escherichia coli = assay: Antibacterial activity against Escherichia coli MB2884 measured after overnight incubation; assay type: functional
MCF7 = assay: Cytotoxicity against human MCF7 cells after 72 hrs by CellTiter-Glo luminescent assay; assay type: functional, cell-based; settings: MCF7, 72 h
SW480 = assay: Cytotoxicity against human SW480 cells after 72 hrs by CellTiter-Glo luminescent assay; assay type: functional, cell-based; settings: SW480, 72 h
Staphylococcus aureus = assay: Antibacterial activity against methicillin-resistant Staphylococcus aureus MB5393 measured after overnight incubation; assay type: functional
Aspergillus fumigatus = assay: Antifungal activity against Aspergillus fumigatus ATCC 46645 measured after overnight incubation; assay type: functional
Klebsiella pneumoniae = assay: Antibacterial activity against Klebsiella pneumoniae ATCC 700603 measured after overnight incubation; assay type: functional
Pseudomonas aeruginosa = assay: Antibacterial activity against Pseudomonas aeruginosa MB5919 measured after overnight incubation; assay type: functional
EVSA-T = assay: Cytotoxicity against human EVSA-T cells after 72 hrs by CellTiter-Glo luminescent assay; assay type: functional, cell-based
[2] = Cytotoxicity against human MEC1 cells after 72 hrs by CellTiter-Glo luminescent assay; assay type: functional, cell-based; settings: MEC1, 72 h
Acinetobacter baumannii = assay: Antibacterial activity against Acinetobacter baumannii MB5973 measured after overnight incubation; assay type: functional
Candida albicans = assay: Antifungal activity against Candida albicans MY1055 measured after overnight incubation; assay type: functional

## CC1(C)[C@@H](O)C(=O)c2c(O)ccc3c2N1C(=O)[C@@]31C[C@]2([N+](=O)[O-])CN3C[C@@H]4O[C@@H]4[C@@H]3C[C@H]2C1(C)C
[1]
  IC50: > 180 µM
MDA-MB-231
  IC50: > 180 µM
Escherichia coli
  MIC: > 64 µg/mL
MCF7
  IC50: > 180 µM
SW480
  IC50: > 180 µM
Staphylococcus aureus
  MIC: > 64 µg/mL
Aspergillus fumigatus
  MIC: > 64 µg/mL
Klebsiella pneumoniae
  MIC: > 64 µg/mL
Pseudomonas aeruginosa
  MIC: > 64 µg/mL
EVSA-T
  IC50: > 180 µM
[2]
  IC50: > 180 µM
Acinetobacter baumannii
  MIC: > 64 µg/mL
Candida albicans
  MIC: > 64 µg/mL

## COc1ccc2c3c1C(=O)[C@H](O)C(C)(C)N3C(=O)[C@@]21C[C@]2([N+](=O)[O-])CN3C[C@@H]4O[C@@H]4[C@@H]3C[C@H]2C1(C)C
[1]
  IC50: > 180 µM
MDA-MB-231
  IC50: > 180 µM
Escherichia coli
  MIC: > 64 µg/mL
MCF7
  IC50: > 180 µM
SW480
  IC50: > 180 µM
Staphylococcus aureus
  MIC: > 64 µg/mL
Aspergillus fumigatus
  MIC: > 64 µg/mL
Klebsiella pneumoniae
  MIC: > 64 µg/mL
Pseudomonas aeruginosa
  MIC: > 64 µg/mL
EVSA-T
  IC50: > 180 µM
[2]
  IC50: > 180 µM
Acinetobacter baumannii
  MIC: > 64 µg/mL
Candida albicans
  MIC: > 64 µg/mL
